Source: PubChem BioAssay AID202 (DTP/NCI, 2004)
Values joined by “and” are separate entries in the source; they are usually repeats but may differ in a detail not shown here. Equal entries are not always repeated. *1 amine or outer side, *2 acyl side, *3 side chain or, on linkers, in order; H or OH if unused. Where a SMILES comes first, the peptide text is derived from it. Bridges are numbered along the chain shown (N, C = ends). Roman numbers before positions name the chains, in order. [ ]: non-standard residue; d: D form. Actinocin(9to1) = Cc1c2oc3c(C)ccc(C(=O)[*:1])c3nc-2c(C(=O)[*:2])c(N)c1=O; aThr = C[C@H](O)[C@H](N)C(=O)O; NMeV = CN[C@H](C(=O)O)C(C)C; Sar = CNCC(=O)O

Test system: HT29 xenograft, nude mice, s.c., tumor weight T/C%
Test: NCI In Vivo Anticancer Drug Screen. Data for tumor model HT29;CX-1 Human Adenocarcinoma (MER+) (subcutaneous) in NU/NU Swiss (nude) mice
Details: endpoint: optimum tumor weight change, higher = larger tumour
Protocol: The antitumor activity of compounds was measured in mice bearing transplantable tumors. Survival or tumor size were measured and the results are expressed as the measurement made in the treated group (T) divided by the measurement made in the vehicle treated control group (C). The tumor model used in this assay is HT29;CX-1 Human Adenocarcinoma (MER+) (subcutaneous) in NU/NU Swiss (nude) mice

[1] = dose: 100.0 mg/kg/injection, schedule: Q04DX003 (ip), vehicle: suspension in saline
[2] = dose: 50.0 mg/kg/injection, schedule: Q04DX003 (ip), vehicle: saline
[3] = dose: 100.0 mg/kg/injection, schedule: Q04DX003 (ip), vehicle: saline
[4] = dose: 200.0 mg/kg/injection, schedule: Q04DX003 (ip), vehicle: saline
[5] = dose: 50.0 mg/kg/injection, schedule: Q04DX003 (ip), vehicle: Klucel (hydroxypropylcellulose) (HPC)
[6] = dose: 150.0 mg/kg/injection, schedule: Q04DX003 (ip), vehicle: saline with Tween-80
[7] = dose: 400.0 mg/kg/injection, schedule: Q04DX003 (ip), vehicle: saline with Tween-80

In the case of CN(CO)c1nc(N(C)CO)nc(N(C)CO)n1, the T/C (dose: 25.0 mg/kg/injection, schedule: Q01DX005 (ip), vehicle: Klucel (hydroxypropylcellulose) (HPC)) is reported as 75 % of control, the T/C (dose: 25.0 mg/kg/injection, schedule: Q04DX005 (ip), vehicle: Klucel (hydroxypropylcellulose) (HPC)) is reported as 62 % of control and the T/C (dose: 25.0 mg/kg/injection, schedule: Q07DX005 (ip), vehicle: Klucel (hydroxypropylcellulose) (HPC)) is reported as 93 % of control. For the same compound, the T/C (dose: 50.0 mg/kg/injection, schedule: Q01DX005 (ip), vehicle: Klucel (hydroxypropylcellulose) (HPC)) was 102 % of control and 123 % of control, the T/C (dose: 50.0 mg/kg/injection, schedule: Q04DX005 (ip), vehicle: Klucel (hydroxypropylcellulose) (HPC)) was 119 % of control and 120 % of control and the T/C (dose: 50.0 mg/kg/injection, schedule: Q07DX005 (ip), vehicle: Klucel (hydroxypropylcellulose) (HPC)) was 99 % of control. For the same compound, the T/C [1] was 75 % of control, the T/C (dose: 100.0 mg/kg/injection, schedule: Q04DX005 (ip), vehicle: Klucel (hydroxypropylcellulose) (HPC)) was 99 % of control and 116 % of control and the T/C (dose: 100.0 mg/kg/injection, schedule: Q07DX005 (ip), vehicle: Klucel (hydroxypropylcellulose) (HPC)) was 48 % of control. The T/C (dose: 200.0 mg/kg/injection, schedule: Q07DX005 (ip), vehicle: Klucel (hydroxypropylcellulose) (HPC)) was 47 % of control and 58 % of control.
In the case of N=c1ccn2c(n1)OC1C(O)C(CO)OC12 (stereo unspecified), the T/C [2] is reported as 70 % of control, the T/C [3] is reported as 49 % of control and the T/C [4] is reported as 71 % of control and 77 % of control. The T/C (dose: 800.0 mg/kg/injection, schedule: Q04DX003 (ip), vehicle: saline) was 40 % of control.
In the case of CC(C)=CCNc1ncnc2c1ncn2C1OC(CO)C(O)C1O (stereo unspecified), the T/C [1] is reported as 106 % of control, the T/C (dose: 200.0 mg/kg/injection, schedule: Q04DX003 (ip), vehicle: suspension in saline) is reported as 77 % of control and the T/C (dose: 400.0 mg/kg/injection, schedule: Q04DX003 (ip), vehicle: suspension in saline) is reported as 65 % of control. The T/C (dose: 800.0 mg/kg/injection, schedule: Q04DX003 (ip), vehicle: suspension in saline) was 64 % of control.
In the case of Nc1nc(N)c2cc(CNc3ccc(C(=O)NC(CC(=O)O)CC(=O)O)cc3)ccc2n1, the T/C [5] is reported as 84 % of control.
With O=C(O)C1(C(=O)O)CCC1.[NH2-].[NH2-].[Pt+2] the T/C (dose: 6.25 mg/kg/injection, schedule: Q04DX003 (ip), vehicle: dextrose) was 109 % of control and the T/C (dose: 25.0 mg/kg/injection, schedule: Q04DX003 (ip), vehicle: dextrose) was 69 % of control.
Cc1c2oc3c(C)ccc(C(=O)N[C@@H]4C(=O)N[C@H](C(C)C)C(=O)N5CCC[C@H]5C(=O)N(C)CC(=O)N(C)[C@@H](C(C)C)C(=O)O[C@H]4C)c3nc-2c(C(=O)N[C@@H]2C(=O)N[C@H](C(C)C)C(=O)N3CCC[C@H]3C(=O)N(C)CC(=O)N(C)[C@@H](C(C)C)C(=O)O[C@H]2C)c(N)c1=O (I: [aThr][dV]P[Sar][NMeV] / II: [aThr][dV]P[Sar][NMeV]; ester I:1-I:C, II:1-II:C; linker I:N-II:N via Actinocin(9to1)) was tested, and the T/C (dose: 150.0 micrograms/kg/injection, schedule: Q04DX003 (ip), vehicle: saline) was 54 % of control and the T/C (dose: 300.0 micrograms/kg/injection, schedule: Q04DX003 (ip), vehicle: saline) was 42 % of control.
For C[C@]12CC[C@@H]3c4ccc(OC(=O)Cc5ccc(N(CCCl)CCCl)cc5)cc4CC[C@H]3[C@@H]1CC[C@@H]2OC(=O)Cc1ccc(N(CCCl)CCCl)cc1, the T/C [6] was 60 % of control and the T/C (dose: 1200.0 mg/kg/injection, schedule: Q04DX003 (ip), vehicle: saline with Tween-80) was 53 % of control and 66 % of control.
In the case of COc1cccc2c1C(=O)c1c(O)c3c(c(O)c1C2=O)C[C@@](O)(C(C)=O)C[C@@H]3OC1CC(N)C(O)C(C)O1 (stereo partly specified), the T/C (dose: 1.0 mg/kg/injection, schedule: Q04DX003 (ip), vehicle: saline) is reported as 71 % of control and the T/C (dose: 2.0 mg/kg/injection, schedule: Q04DX003 (ip), vehicle: saline) is reported as 113 % of control.
In the case of CC1OC(OC2CC(O)(C(=O)CO)Cc3c(O)c4c(c(O)c32)C(=O)c2ccccc2C4=O)CC(N)C1O (stereo unspecified), the T/C (dose: 0.25 mg/kg/injection, schedule: Q04DX003 (ip), vehicle: water) is reported as 89 % of control.
For Nc1ccc(Cl)cc1N, the T/C [7] was 87 % of control and the T/C (dose: 800.0 mg/kg/injection, schedule: Q04DX003 (ip), vehicle: saline with Tween-80) was 98 % of control.
With NC(=S)N/N=C/c1ccc(O)cn1 the T/C [6] was 63 % of control, the T/C (dose: 300.0 mg/kg/injection, schedule: Q04DX003 (ip), vehicle: saline with Tween-80) was 70 % of control and the T/C (dose: 600.0 mg/kg/injection, schedule: Q04DX003 (ip), vehicle: saline with Tween-80) was 87 % of control.
O=P1(NCCCl)OCCCN1CCCl (stereo unspecified) was tested, and the T/C (dose: 25.0 mg/kg/injection, schedule: Q04DX003 (ip), vehicle: suspension in saline) was 78 % of control and the T/C (dose: 50.0 mg/kg/injection, schedule: Q04DX003 (ip), vehicle: suspension in saline) was 108 % of control.
With Oc1ccc(O)cc1 the T/C [2] was 173 % of control.
In the case of Nc1cc2[nH]cnc2c(=O)[nH]1, the T/C [2] is reported as 89 % of control, the T/C [3] is reported as 83 % of control and the T/C [4] is reported as 93 % of control.
For CC(C)CCCCCCCCCCCCC(=O)NCC(=O)NC1C(C)OC(Nc2ncnc3nc[nH]c23)C(O)C1O (stereo unspecified), the T/C (dose: 3.13 mg/kg/injection, schedule: Q04DX003 (ip), vehicle: distilled water + Tween-80) was 88 % of control, the T/C (dose: 3.13 mg/kg/injection, schedule: Q04DX003 (ip), vehicle: saline with Tween-80) was 58 % of control and the T/C (dose: 6.25 mg/kg/injection, schedule: Q04DX003 (ip), vehicle: distilled water + Tween-80) was 56 % of control and 66 % of control. The T/C (dose: 6.25 mg/kg/injection, schedule: Q04DX003 (ip), vehicle: saline with Tween-80) was 52 % of control, the T/C (dose: 12.5 mg/kg/injection, schedule: Q04DX003 (ip), vehicle: distilled water + Tween-80) was 55 % of control and the T/C (dose: 12.5 mg/kg/injection, schedule: Q04DX003 (ip), vehicle: saline with Tween-80) was 40 % of control. The T/C (dose: 25.0 mg/kg/injection, schedule: Q04DX003 (ip), vehicle: distilled water + Tween-80) was 73 % of control.
O=C1N[C@@H]([C@H]2CC[C@H](Cl)CN2)C(=O)N[C@H]1[C@H]1CC[C@H](Cl)CN1 was tested, and the T/C (dose: 0.31 mg/kg/injection, schedule: Q01DX001 (ip), vehicle: water) was 53 % of control, the T/C (dose: 0.63 mg/kg/injection, schedule: Q01DX001 (ip), vehicle: water) was 64 % of control and the T/C (dose: 1.25 mg/kg/injection, schedule: Q01DX001 (ip), vehicle: water) was 79 % of control.
In the case of CSc1cc(=O)n2c3ccccc3c3ccnc1c32, the T/C (dose: 20.0 mg/kg/injection, schedule: Q04DX003 (ip), vehicle: saline with Tween-80) is reported as 101 % of control, the T/C (dose: 160.0 mg/kg/injection, schedule: Q04DX003 (ip), vehicle: saline with Tween-80) is reported as 89 % of control and 99 % of control and the T/C (dose: 320.0 mg/kg/injection, schedule: Q04DX003 (ip), vehicle: saline with Tween-80) is reported as 82 % of control. For the same compound, the T/C (dose: 640.0 mg/kg/injection, schedule: Q04DX003 (ip), vehicle: saline with Tween-80) was 81 % of control.
With CN(N=O)C(=O)N[C@@H](C=O)[C@@H](O)[C@H](O)[C@H](O)CO the T/C [3] was 82 % of control and the T/C [4] was 98 % of control.
For CC(=O)Oc1ccc[nH]c1=O, the T/C (dose: 200.0 mg/kg/injection, schedule: Q04DX003 (ip), vehicle: saline with Tween-80) was 96 % of control and the T/C [7] was 111 % of control.
In the case of CO[C@H]1C[C@](C)(O)Cc2cc3c(c(O)c21)C(=O)c1c(O)cc2c(c1C3=O)O[C@@H]1O[C@@]2(C)[C@H](O)[C@@H](N(C)C)[C@@H]1O, the T/C (dose: 3.13 mg/kg/injection, schedule: Q04DX003 (ip), vehicle: other) is reported as 97 % of control, the T/C (dose: 6.25 mg/kg/injection, schedule: Q04DX003 (ip), vehicle: other) is reported as 124 % of control and the T/C (dose: 12.5 mg/kg/injection, schedule: Q04DX003 (ip), vehicle: other) is reported as 68 % of control. For the same compound, the T/C (dose: 25.0 mg/kg/injection, schedule: Q04DX003 (ip), vehicle: other) was 61 % of control and 75 % of control.
With N/C(=N\O)c1cn(C2OC(CO)C(O)C2O)c2ncnc(N)c12 (stereo unspecified) the T/C (dose: 5.0 mg/kg/injection, schedule: Q04DX003 (ip), vehicle: Klucel (hydroxypropylcellulose) (HPC)) was 91 % of control, the T/C (dose: 10.0 mg/kg/injection, schedule: Q04DX003 (ip), vehicle: Klucel (hydroxypropylcellulose) (HPC)) was 63 % of control and the T/C (dose: 20.0 mg/kg/injection, schedule: Q04DX003 (ip), vehicle: Klucel (hydroxypropylcellulose) (HPC)) was 47 % of control.
In the case of CCOC(=O)Nc1cc2c(c(N)n1)N=C(CN(C)c1ccccc1)CN2, the T/C (dose: 12.5 mg/kg/injection, schedule: Q04DX003 (ip), vehicle: Klucel (hydroxypropylcellulose) (HPC)) is reported as 74 % of control, the T/C (dose: 25.0 mg/kg/injection, schedule: Q04DX003 (ip), vehicle: Klucel (hydroxypropylcellulose) (HPC)) is reported as 116 % of control and the T/C [5] is reported as 71 % of control. The T/C (dose: 100.0 mg/kg/injection, schedule: Q04DX003 (ip), vehicle: Klucel (hydroxypropylcellulose) (HPC)) was 90 % of control.
N=C(N)Sc1ccccn1 was tested, and the T/C [2] was 77 % of control, the T/C [3] was 112 % of control and the T/C [4] was 65 % of control.
